In patent US8658000B2, “Preparation method of apigenin and dehydrosilybin mixture using radiation” (Korea Atomic Energy Research Institute, priority 2011, dated 2014):

Assays:
[1] = test system: prostate carcinoma cell line (DU145); assay: EZ-Cytox cell viability assay, prostate carcinoma cell line (DU145); type: cell-based; details: Homo sapiens, DU-145; DU145, 50 μg/mL, 24 h, non-treated = 100
Protocol: (§1) To investigate the cancer cell inhibitory effect of the compounds of formulae 1 and 2 obtained by the preparation method according to the present invention, experiment was conducted. EZ-Cytox cell viability assay kit (Daeil Lab, Korea) was used to measure cancer cell growth inhibitory activity, and prostate carcinoma cell line (DU145), cervical carcinoma cell line (Hela), colon carcinoma cell line (SW480), and lung carcinoma cell line (H460) were used for cancer cells. All the cancer cells were incubated in 96-well plate at concentration of 5×10^4 cells/mL. After 24 h, dehydrosilybin compound of formula 1 and apigenin compound of formula 2 according to the present invention, and starting substance (i.e., silybin) as a control were treated at concentration of 50 μg/mL. After culturing at 37° C., 5% carbon dioxide environment, 24 h, 10 μL of kit solution was treated in each well. After 3 h of additional culturing, the optical absorbance was measured at 480 nm. The result is listed in Tables 3 to 6 and illustrated in FIGS. 2 to 7.

[2] = test system: lung carcinoma cell line (H460); assay: EZ-Cytox cell viability assay, lung carcinoma cell line (H460); type: cell-based; details: Homo sapiens, NCI-H460; H460, 50 μg/mL, 24 h, non-treated = 100
Protocol: as §1

various cancers = details: background statement; cited from earlier work
[3] = test system: lung carcinoma cell line (A549); assay: EZ-Cytox cell viability assay, lung carcinoma cell line (A549); type: cell-based; details: Homo sapiens; A549, 50 μg/mL, 24 h, non-treated = 100
[4] = test system: cervical carcinoma cell line (Hela); assay: EZ-Cytox cell viability assay, cervical carcinoma cell line (Hela); type: cell-based; details: Homo sapiens, 50 μg/mL, 24 h, non-treated = 100
Protocol: as §1

[5] = test system: colon carcinoma cell line (SW620); assay: EZ-Cytox cell viability assay, colon carcinoma cell line (SW620); type: cell-based; details: Homo sapiens, SW-620; SW620, 50 μg/mL, 24 h, non-treated = 100
[6] = test system: colon carcinoma cell line (SW480); assay: EZ-Cytox cell viability assay, colon carcinoma cell line (SW480); type: cell-based; details: Homo sapiens; SW480, 50 μg/mL, 24 h, non-treated = 100
Protocol: as §1

Row | SMILES | viability at 50 µg/mL [1] [%] | viability at 50 µg/mL [2] [%] | concentration at which apigenin can effectively act (anticancer activity) (various cancers) [µM] | viability at 50 µg/mL [3] [%] | viability at 50 µg/mL [4] [%] | viability at 50 µg/mL [5] [%] | viability at 50 µg/mL [6] [%]
1 | O=c1cc(-c2ccc(O)cc2)oc2cc(O)cc(O)c12 [Compound of formula 2, 5,7-dihydroxy-2-(4-hydroxyphenyl)-4H-chroman-4-one] | 51.6 | 97.4 | < 50 | 72.1 | 38.7 | 39.4 | 49.2
2 | COc1cc(C2Oc3cc(-c4oc5cc(O)cc(O)c5c(=O)c4O)ccc3OC2CO)ccc1O (stereo not shown) [Compound of formula 1] | 40.4 | 66.3 |  | 58.9 | 21.1 | 27.8 | 41.7
